Measured values reported in PMC11191095, “QSAR Reveals Decreased Lipophilicity of Polar Residues Determines the Selectivity of Antimicrobial Peptide Activity” (ACS Omega, 2024).
In brackets after ≈: the same amount, converted by molar mass. Where a SMILES comes first, the peptide text is derived from it.

Columns and labels:
Assay in all cases: microbe, parasite or virus in culture
[1] = system: C. auris TDG 1912; format: cell-based, Candida auris; conditions: Candidozyma auris, TDG1912, read-out: Modal MIC (antibiogram)
Description: (§1) Antimicrobial activity was evaluated against a panel of 18 pathogens consisting of eight Gram-negative strains (E. coli NCTC 12923, E. coli LEC001, Pseudomonas aeruginosa PAO1, P. aeruginosa NCTC 13437, Acinetobacter baumannii ATCC 17978, A. baumannii AYE, Klebsiella pneumoniae M6, K. pneumoniae NCTC 13368), four Gram-positive strains (Staphylococcus aureus ATCC 9144, S. aureus NCTC 13616, S. aureus USA300, S. aureus 1199B) and six fungi (Candida auris TDG 1912, C. albicans NCPF 8018, C. krusei NCPF 3876, C. tropicalis NCPF 8760, and C. parapsilosis NCPF 3209). Pathogens were grown in noncation adjusted Mueller Hinton broth (MHB, for bacteria) or Roswell Park Memorial Institute (RPMI 1640) + 2% glucose (for fungi) at 37 °C with 180 rpm shaking and maintained on solid media (tryptic soy agar for bacteria and Sabouraud dextrose agar for fungi). For an antibiogram, see Suppl.
(§2) The 46 peptides were serially diluted (128 to 2 μg/mL) in media down polypropylene 96-well plates. Bacteria or fungi, diluted from an overnight culture to an OD600 of 0.01, were added to the serially diluted peptides at a 1:1 ratio resulting in a starting cell density of ∼5 × 10^5 CFU/mL. Plates were incubated at 37 °C for 20 h, and the optical density was determined spectrophotometrically at 600 nm. Minimum inhibition concentrations (MICs) were determined from a minimum of three biological repeats and are reported in μg/mL as well as μM. […] The MIC50 or MIC90 is defined as the lowest peptide concentration that results in 50% or 90% growth inhibition over a 20 h treatment period, respectively.

[2] = system: C. albicans NCPF 3281; format: cell-based; conditions: for MIC: Candida albicans, NCPF3281, read-out: Modal MIC (antibiogram); for Modal MIC50 / Modal MIC90: NCPF 3281, 20 h
Description: as §1, §2

[3] = system: C. glabrata NCPF 8018; format: cell-based; conditions: for MIC: Nakaseomyces glabratus, NCPF8018, read-out: Modal MIC (antibiogram); for Modal MIC50 / Modal MIC90: NCPF 8018, 20 h
Description: as §1, §2

[4] = system: C. krusei NCPF 3876; format: cell-based; conditions: for MIC: Pichia kudriavzevii, NCPF3876, read-out: Modal MIC (antibiogram); for Modal MIC50 / Modal MIC90: NCPF 3876, 20 h
Description: as §1, §2

[5] = system: C. parapsilosis NCPF 3209; format: cell-based; conditions: for MIC: Lodderomyces parapsilosis, NCPF3209, read-out: Modal MIC (antibiogram); for Modal MIC50 / Modal MIC90: NCPF 3209, 20 h
Description: as §1, §2

[6] = system: C. tropicalis NCPF 8760; format: cell-based; conditions: for MIC: Candida tropicalis, NCPF8760, read-out: Modal MIC (antibiogram); for Modal MIC50 / Modal MIC90: NCPF 8760, 20 h
Description: as §1, §2

[7] = system: E. coli NCTC 12923; format: cell-based, Escherichia coli; conditions: NCTC 12923, 20 h
Description: as §1, §2

[8] = system: A. baumannii ATCC 17978; format: cell-based, Acinetobacter baumannii; conditions: ATCC 17978, 20 h
Description: as §1, §2

[9] = system: A. baumannii AYE; format: cell-based, Acinetobacter baumannii; conditions: AYE, 20 h
Description: as §1, §2

[10] = system: S. aureus (MSSA) ATCC 9144; format: cell-based, Staphylococcus aureus; conditions: ATCC 9144, 20 h
Description: as §1, §2

Compound | MIC [1] [µg/mL] | MIC [2] [µg/mL] | MIC [3] [µg/mL] | MIC [4] [µg/mL] | MIC [5] [µg/mL] | MIC [6] [µg/mL] | Modal MIC50 [2] [µM] | Modal MIC90 [2] [µM] | Modal MIC50 [3] [µM] | Modal MIC90 [3] [µM] | Modal MIC50 [4] [µM] | Modal MIC90 [4] [µM] | Modal MIC50 [5] [µM] | Modal MIC90 [5] [µM] | Modal MIC50 [6] [µM] | Modal MIC90 [6] [µM] | Modal MIC [7] [µM] | Modal MIC [8] [µM] | Modal MIC [9] [µM] | Modal MIC [10] [µM]
Cc1ccc(Oc2ccccc2-c2csc(N=C3NCCCN3)n2)c(C)c1 [Abafungin, reference compound] | > 128 | > 128 | > 128 | 0.25 (≈ 0.661 µM) | 0.25 to 0.5 (≈ 0.661 to 1.32 µM) | > 128 |  |  |  |  |  |  |  |  |  |  |  |  |  | 
C[C@@H]1[C@H](O)[C@@H](C)/C=C/C=C/C=C/C=C/C=C/C=C/C=C/[C@H](O[C@@H]2O[C@H](C)[C@@H](O)[C@H](N)[C@@H]2O)C[C@@H]2O[C@](O)(C[C@@H](O)C[C@@H](O)[C@H](O)CC[C@@H](O)C[C@@H](O)CC(=O)O[C@H]1C)C[C@H](O)[C@H]2C(=O)O [Amphotericin B, reference compound] | 0.03 (≈ 0.0325 µM) | 0.015 (≈ 0.0162 µM) | 0.03 (≈ 0.0325 µM) | 0.06 (≈ 0.0649 µM) | ≤ 0.007 | 0.03 (≈ 0.0325 µM) |  |  |  |  |  |  |  |  |  |  |  |  |  | 
CC(C)C[C@H](NC(=O)CNC(=O)[C@H](Cc1ccccc1)NC(=O)[C@H](CCCCN)NC(=O)[C@H](Cc1ccccc1)NC(=O)[C@H](C)NC(=O)[C@@H](N)CCCCN)C(=O)N[C@@H](CCCCN)C(=O)N[C@H](C(=O)N[C@H](C(N)=O)C(C)C)[C@@H](C)O [CPF-MW-10a] (H-KAFKFGLKTV-NH2) |  |  |  |  |  |  | > 110.8 | > 110.8 | > 110.8 | > 110.8 | > 110.8 | > 110.8 | > 110.8 | > 110.8 | > 110.8 | > 110.8 |  |  |  | 
CC(C)C[C@H](NC(=O)CNC(=O)[C@H](Cc1ccccc1)NC(=O)[C@H](CCCCN)NC(=O)[C@H](Cc1ccccc1)NC(=O)[C@H](C)NC(=O)[C@@H](N)CCCCN)C(=O)N[C@@H](CCCCN)C(=O)N[C@H](C(=O)N[C@H](C(=O)NCC(=O)N[C@@H](CCCCN)C(N)=O)C(C)C)[C@@H](C)O [CPF-MW-12a] (H-KAFKFGLKTVGK-NH2) |  |  |  |  |  |  | > 95.5 | > 95.5 | > 95.5 | > 95.5 | > 95.5 | > 95.5 | > 95.5 | > 95.5 | > 95.5 | > 95.5 |  |  |  | 
CC[C@H](C)[C@H](NC(=O)[C@H](CCCCN)NC(=O)[C@H](CC(C)C)NC(=O)[C@H](C)NC(=O)[C@H](C)NC(=O)[C@H](CCCCN)NC(=O)[C@H](CC(C)C)NC(=O)[C@H](C)NC(=O)[C@H](CCCCN)NC(=O)CN)C(=O)NCC(=O)N[C@@H](C)C(=O)N[C@@H](CC(N)=O)C(=O)N[C@H](C(=O)N[C@@H](CC(C)C)C(=O)NCC(=O)NCC(=O)N[C@@H](C)C(=O)N1CCC[C@H]1C(=O)N[C@@H](CCC(N)=O)C(N)=O)C(C)C [CPF-P3-20a] (H-GKALKAALKIGANVLGGAPQ-NH2) |  |  |  |  |  |  | > 65.7 | > 65.7 | > 65.7 | > 65.7 | > 65.7 | > 65.7 | > 65.7 | > 65.7 | > 65.7 | > 65.7 | 65.7 | 65.7 | 65.7 | 
CC[C@H](C)C[C@H](C)CCCCCCCCC(=O)N[C@H]1C[C@@H](O)[C@@H](NCCN)NC(=O)[C@@H]2[C@@H](O)CCN2C(=O)[C@H]([C@H](O)CCN)NC(=O)[C@H]([C@H](O)[C@@H](O)c2ccc(O)cc2)NC(=O)[C@@H]2C[C@@H](O)CN2C(=O)[C@H]([C@@H](C)O)NC1=O [Caspofungin, reference compound] | 0.03 (≈ 0.0274 µM) | ≤ 0.007 | ≤ 0.007 | ≤ 0.007 | 0.125 (≈ 0.114 µM) | ≤ 0.007 |  |  |  |  |  |  |  |  |  |  |  |  |  | 
OC(Cn1cncn1)(Cn1cncn1)c1ccc(F)cc1F [Fluconazole, reference compound] | > 128 | 0.06 to 0.125 (≈ 0.196 to 0.408 µM) | 4 (≈ 13.1 µM) | 8 (≈ 26.1 µM) | 0.25 (≈ 0.816 µM) | 16 (≈ 52.2 µM) |  |  |  |  |  |  |  |  |  |  |  |  |  | 
C[C@@H](c1ncncc1F)[C@](O)(Cn1cncn1)c1ccc(F)cc1F [Voriconazole, reference compound] | 1 (≈ 2.86 µM) | ≤ 0.007 | 0.125 (≈ 0.358 µM) | 0.06 (≈ 0.172 µM) | ≤ 0.007 | 0.5 (≈ 1.43 µM) |  |  |  |  |  |  |  |  |  |  |  |  |  | 
CC[C@H](C)[C@H](NC(=O)CNC(=O)[C@H](CCCCN)NC(=O)[C@H](Cc1c[nH]c2ccccc12)NC(=O)[C@H](Cc1c[nH]c2ccccc12)NC(=O)[C@@H](N)Cc1c[nH]c2ccccc12)C(=O)N[C@@H](CCCNC(=N)N)C(=O)NCC(=O)N[C@@H](Cc1ccc(O)cc1)C(=O)N[C@@H](CCCCN)C(=O)NCC(=O)NCC(=O)N[C@@H](Cc1ccc(O)cc1)C(=O)N[C@@H](CCCCN)C(=O)NCC(=O)N[C@@H](C)C(=O)N[C@@H](Cc1ccccc1)C(=O)N[C@@H](CCCCN)C(=O)N[C@@H](CCC(N)=O)C(=O)N[C@H](C(=O)N[C@@H](CCCCN)C(=O)N[C@@H](Cc1ccc(O)cc1)C(N)=O)[C@@H](C)O [W3(Os-C)a] (H-WWWKGIRGYKGGYKGAFKQTKY-NH2) |  |  |  |  |  |  | > 46.9 | > 46.9 | > 46.9 | > 46.9 | > 46.9 | > 46.9 | > 46.9 | > 46.9 | > 46.9 | > 46.9 | 23.5 | 11.7 | 5.9 | 11.7
CC[C@H](C)[C@H](NC(=O)CNC(=O)[C@H](CCCCN)NC(=O)[C@@H](N)Cc1c[nH]c2ccccc12)C(=O)N[C@@H](CCCNC(=N)N)C(=O)NCC(=O)N[C@@H](Cc1ccc(O)cc1)C(=O)N[C@@H](CCCCN)C(=O)NCC(=O)NCC(=O)N[C@@H](Cc1ccc(O)cc1)C(=O)N[C@@H](CCCCN)C(=O)NCC(=O)N[C@@H](C)C(=O)N[C@@H](Cc1ccccc1)C(=O)N[C@@H](CCCCN)C(=O)N[C@@H](CCC(N)=O)C(=O)N[C@H](C(=O)N[C@@H](CCCCN)C(=O)N[C@@H](Cc1ccc(O)cc1)C(N)=O)[C@@H](C)O [W(Os-C)a] (H-WKGIRGYKGGYKGAFKQTKY-NH2) |  |  |  |  |  |  | > 54.4 | > 54.4 | > 54.4 | > 54.4 | > 54.4 | > 54.4 | > 54.4 | > 54.4 | > 54.4 | > 54.4 |  | 27.2 | 13.6 | 54.4
CC[C@H](C)[C@H](NC(=O)[C@H](CCCCN)NC(=O)CNC(=O)[C@@H](N)CC(C)C)C(=O)N[C@@H](C)C(=O)N[C@@H](CCCCN)C(=O)N[C@H](C(=O)NCC(=O)N[C@@H](CC(C)C)C(=O)N[C@@H](CCCCN)C(N)=O)C(C)C [XPF10a] (H-LGKIAKVGLK-NH2) |  |  |  |  |  |  | > 120.6 | > 120.6 | > 120.6 | > 120.6 | > 120.6 | > 120.6 | > 120.6 | > 120.6 | > 120.6 | > 120.6 |  |  |  | 
